# Measured values taken from US9951028B2, “Agricultural chemicals” (REDAG CROP PROTECTION LTD, priority 2013, dated 2018).
# Key:
# Type in all cases: in vivo
# [1] = test system: Capsella bursa-pastoris, (shepherd's-purse); test: Herbicidal efficacy screen, corrected necrosis
# [2] = test system: Abutilon theophrasti (China Jute); test: Herbicidal efficacy screen, corrected necrosis; settings: for control over A. theophrasti: after 10 days, Table 5
# [3] = test system: Amaranthus retroflexus (redroot pigweed); test: Herbicidal efficacy screen, corrected necrosis
# [4] = test system: A. retroflexus, A. theophrasti, C. bursa pastoris; test: Herbicidal efficacy screen, text summary of table 2 over all target weed species; settings: certain weed species, after 1 day
# From the text: (§1) Certain compounds of the invention were screened for herbicidal efficacy against target plants: Amaranthus retroflexus (redroot pigweed), Abutilon theophrasti (China Jute): Capsella bursa-pastoris, (shepherd's-purse) Echinochloa crus-galli, Hordeum vulgare (Barley),
# [5] = test system: A. theophrasti, E. crus galli, H. vulgare; test: Herbicidal efficacy screen, summary of tables 3-5 over all target weed species; settings: table 3
# From the text: as §1
# [6] = test system: Echinochloa crus-galli; test: Herbicidal efficacy screen, corrected necrosis; settings: Table 5; for control over E. crus galli: after 10 days
# [7] = test system: Hordeum vulgare (Barley); test: Herbicidal efficacy screen, corrected necrosis; settings: Table 5
# [8] = 6.25 g/ha, day 1 post application
# [9] = 6.25 g/ha, day 7 post application
# [10] = 12.5 g/ha, day 1 post application
# [11] = 12.5 g/ha, day 7 post application
# [12] = 25 g/ha, day 1 post application
# [13] = 25 g/ha, day 7 post application
# [14] = 50 g/ha, day 1 post application
# [15] = 50 g/ha, day 7 post application
# [16] = 100 g/ha, day 1 post application
# [17] = 100 g/ha, day 7 post application
smiles,measurement,setting,value
"CC(C)C(C)S(=O)(=O)NC(=O)c1cc(-n2c(=O)cc(C(F)(F)F)n(C)c2=O)c(F)cc1Cl (stereo not shown) [Compound 26, 2-Chloro-N-(1,2-dimethylpropylsulfonyl)-4-fluoro-5-[3-methyl-2,6-dioxo-4-(trifluoromethyl)pyrimidin-1-yl]benzamide]",Average of corrected necrosis,[1]; [8],C (C represents a percentage increase in necrosis relative to the control of 0.1-50)
same,Average of corrected necrosis,[1]; [9],A (A represents a percentage inhibition of 80-100)
same,Average of corrected necrosis,[1]; [10],C (C represents a percentage increase in necrosis relative to the control of 0.1-50)
same,Average of corrected necrosis,[1]; [11],0%
same,Average of corrected necrosis,[1]; [12],C (C represents a percentage increase in necrosis relative to the control of 0.1-50)
same,Average of corrected necrosis,[1]; [13],A (A represents a percentage inhibition of 80-100)
same,Average of corrected necrosis,[1]; [14],C (C represents a percentage increase in necrosis relative to the control of 0.1-50)
same,Average of corrected necrosis,[1]; [15],A (A represents a percentage inhibition of 80-100)
same,Average of corrected necrosis,[1]; [16],C (C represents a percentage increase in necrosis relative to the control of 0.1-50)
same,Average of corrected necrosis,[1]; [17],A (A represents a percentage inhibition of 80-100)
same,Average of corrected necrosis,[2]; [8],C (C represents a percentage increase in necrosis relative to the control of 0.1-50)
same,Average of corrected necrosis,[2]; [9],A (A represents a percentage inhibition of 80-100)
same,Average of corrected necrosis,[2]; [10],0%
same,Average of corrected necrosis,[2]; [11],A (A represents a percentage inhibition of 80-100)
same,Average of corrected necrosis,[2]; [12],C (C represents a percentage increase in necrosis relative to the control of 0.1-50)
same,Average of corrected necrosis,[2]; [13],A (A represents a percentage inhibition of 80-100)
same,Average of corrected necrosis,[2]; [14],C (C represents a percentage increase in necrosis relative to the control of 0.1-50)
same,Average of corrected necrosis,[2]; [15],A (A represents a percentage inhibition of 80-100)
same,Average of corrected necrosis,[2]; [16],B (B represents a percentage inhibition of 50-80)
same,Average of corrected necrosis,[2]; [17],A (A represents a percentage inhibition of 80-100)
same,Average of corrected necrosis,[3]; [8],C (C represents a percentage increase in necrosis relative to the control of 0.1-50)
same,Average of corrected necrosis,[3]; [9],A (A represents a percentage inhibition of 80-100)
same,Average of corrected necrosis,[3]; [10],C (C represents a percentage increase in necrosis relative to the control of 0.1-50)
same,Average of corrected necrosis,[3]; [11],A (A represents a percentage inhibition of 80-100)
same,Average of corrected necrosis,[3]; [12],C (C represents a percentage increase in necrosis relative to the control of 0.1-50)
same,Average of corrected necrosis,[3]; [13],A (A represents a percentage inhibition of 80-100)
same,Average of corrected necrosis,[3]; [14],C (C represents a percentage increase in necrosis relative to the control of 0.1-50)
same,Average of corrected necrosis,[3]; [15],A (A represents a percentage inhibition of 80-100)
same,Average of corrected necrosis,[3]; [16],C (C represents a percentage increase in necrosis relative to the control of 0.1-50)
same,Average of corrected necrosis,[3]; [17],A (A represents a percentage inhibition of 80-100)
same,control compared with the reference compound (saflufenacil),[4],better control
"C#CC(c1ccc(F)cc1)C(CC(=O)OCC)c1c(F)cccc1F (stereo not shown) [Compound 37, Ethyl 3-(2,6-difluorophenyl)-4-(4-fluorophenyl)hex-5-ynoate]",control compared with prior art compounds 27 and 27a,[5],significantly better control
same,control over all three weed species,[5],excellent control
"CSc1c(C(F)(F)F)ccc(CNc2nonc2C)c1C [Compound 47, 4-Methyl-N-[[2-methyl-3-methylsulfanyl-4-(trifluoromethyl)phenyl]methyl]-1,2,5-oxadiazol-3-amine]",control over E. crus galli,[6],good control
same,control of E. crus galli relative to the reference compound 48,[6]; at low dosages,improved control
same,control over H. vulgare,[7],good control
same,control of H. vulgare relative to the reference compound 48,[7]; at low dosages,improved control
same,control over A. theophrasti,[2],good control
"CSc1c(C(F)(F)F)ccc(C(=O)Nc2nonc2C)c1C [Compound 48, 2-Methyl-N-(4-methyl-1,2,5-oxadiazol-3-yl)-3-methylsulfanyl-4-(trifluoromethyl)benzamide, reference compound]",control over E. crus galli,[6],good control
same,control over A. theophrasti,[2],good control
